According to US10202374B2, “6-aryl-4-phenylamino-quinazoline analogs as phosphoinositide-3-kinase inhibitors” (COUNCIL OF SCIENTIFIC & INDUSTRIAL RESEARCH, priority 2014, dated 2019):
pIC50: −log10 of the molar value.

Experiments:
[1] = test system: PC-3 (prostate cancer) cells; assay: MTT cytotoxicity assay, PC-3; format: cell-based; details: Homo sapiens, 48 h treatment, read-out: Anticancer activity IC50 PC-3
Protocol: (§1) Compounds proposed in present invention were evaluated for their cytotoxic effect against panel of 5 cancer cell line viz. Panc-1 (pancreatic cancer), MCF-7 (breast cancer), PC-3 (prostate), HL-60 (leukemia) and A-375 (melanoma) using MTT assay. In each well of a 96-well plate, 3×10^3 cells were grown in 100 μL of medium. After 24 h, each test molecules were added to achieve a final concentration of 10 to 0.01 μmol/L, respectively. After 48 h of treatment, 20 μL of 2.5 mg/mL MTT (Organics Research, Inc.) solution in phosphate buffer saline was added to each well. […], supernatant was removed and formazan crystals were dissolved in 200 μL of DMSO. Absorbance was then measured at 570 nm using an absorbance plate reader (Bio-Rad Microplate Reader). Data are expressed as the percentage of viable cells in treated relative to non-treated conditions. Each experiment was repeated thrice and data was expressed as mean±SD of three independent experiments (Mordant, P. et al., Mol. Cancer Ther. 2010, 9, 358).

HL-60 (leukemia) cells = assay: MTT cytotoxicity assay, HL-60; format: cell-based; details: Homo sapiens, 48 h treatment, read-out: Anticancer activity IC50 HL-60
Protocol: as §1

PI3K-α = PI3K-α (Homo sapiens, UniProt P42336); assay: PI3K-α assay (ADP-Glo); format: biochemical; details: for % Inhibition of PI3K-α at 0.5 μM / inhibition at 0.5 µM: preliminary screening; for pIC50: read-out: PI3K inhibition IC50 -α
Chain of PI3K-α (P42336 whole entry): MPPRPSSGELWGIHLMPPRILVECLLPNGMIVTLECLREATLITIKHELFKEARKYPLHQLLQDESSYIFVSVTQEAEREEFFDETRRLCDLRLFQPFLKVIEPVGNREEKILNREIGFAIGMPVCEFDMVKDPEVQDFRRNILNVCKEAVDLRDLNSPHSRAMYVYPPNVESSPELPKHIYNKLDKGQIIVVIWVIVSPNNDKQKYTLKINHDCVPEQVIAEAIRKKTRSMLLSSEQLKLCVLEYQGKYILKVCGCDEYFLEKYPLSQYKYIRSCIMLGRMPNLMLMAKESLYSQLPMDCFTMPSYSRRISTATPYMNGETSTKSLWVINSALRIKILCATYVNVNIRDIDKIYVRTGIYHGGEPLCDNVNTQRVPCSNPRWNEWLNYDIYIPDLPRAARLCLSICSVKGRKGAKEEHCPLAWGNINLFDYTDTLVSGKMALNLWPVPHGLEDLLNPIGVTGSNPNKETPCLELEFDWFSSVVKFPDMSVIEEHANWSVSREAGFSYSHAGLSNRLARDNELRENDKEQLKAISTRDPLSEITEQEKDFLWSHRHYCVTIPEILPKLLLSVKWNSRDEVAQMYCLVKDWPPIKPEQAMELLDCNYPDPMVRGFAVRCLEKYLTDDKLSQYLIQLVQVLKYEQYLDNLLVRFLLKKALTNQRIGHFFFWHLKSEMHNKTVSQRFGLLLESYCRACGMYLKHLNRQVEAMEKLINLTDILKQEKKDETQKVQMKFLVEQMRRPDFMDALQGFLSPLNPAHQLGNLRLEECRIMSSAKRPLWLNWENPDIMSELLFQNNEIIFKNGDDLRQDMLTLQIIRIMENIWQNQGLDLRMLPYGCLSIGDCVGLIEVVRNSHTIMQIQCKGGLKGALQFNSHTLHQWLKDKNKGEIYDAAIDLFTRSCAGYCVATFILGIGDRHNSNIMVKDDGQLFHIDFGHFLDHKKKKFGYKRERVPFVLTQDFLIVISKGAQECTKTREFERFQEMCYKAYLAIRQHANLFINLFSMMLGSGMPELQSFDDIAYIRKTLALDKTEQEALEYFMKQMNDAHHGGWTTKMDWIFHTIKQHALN
Chain of PI3K-α (P27986 whole entry partner): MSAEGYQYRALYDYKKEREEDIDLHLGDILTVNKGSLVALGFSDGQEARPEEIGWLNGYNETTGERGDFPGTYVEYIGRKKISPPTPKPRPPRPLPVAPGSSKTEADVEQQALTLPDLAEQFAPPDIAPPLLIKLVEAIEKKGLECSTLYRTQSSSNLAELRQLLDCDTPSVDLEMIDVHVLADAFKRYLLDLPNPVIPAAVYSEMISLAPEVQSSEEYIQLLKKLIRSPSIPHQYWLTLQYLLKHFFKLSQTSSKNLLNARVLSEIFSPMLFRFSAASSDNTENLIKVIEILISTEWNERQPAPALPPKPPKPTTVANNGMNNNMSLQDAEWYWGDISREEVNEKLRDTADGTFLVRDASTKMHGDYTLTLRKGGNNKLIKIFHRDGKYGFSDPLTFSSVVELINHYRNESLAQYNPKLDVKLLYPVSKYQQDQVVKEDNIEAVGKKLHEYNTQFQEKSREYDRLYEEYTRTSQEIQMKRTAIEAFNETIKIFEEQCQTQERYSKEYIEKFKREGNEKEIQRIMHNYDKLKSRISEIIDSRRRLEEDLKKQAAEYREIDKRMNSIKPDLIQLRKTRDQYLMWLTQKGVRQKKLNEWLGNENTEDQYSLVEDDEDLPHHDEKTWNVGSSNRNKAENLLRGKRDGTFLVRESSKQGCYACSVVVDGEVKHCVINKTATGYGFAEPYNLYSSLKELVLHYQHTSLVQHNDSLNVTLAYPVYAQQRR
Protocol: The enzyme is assayed for 80 min after which 20 ul of ADP-Glo reagent is added. After a further incubation of 40 min, 40 ul of Kinase Detection Buffer is added. The assays are incubated for 40 min and then read on PerkinElmer Envision for 1 sec/well.

[2] = test system: Panc-1 (pancreatic cancer) cells; assay: MTT cytotoxicity assay, Panc-1; format: cell-based; details: Homo sapiens, 48 h treatment, read-out: Anticancer activity IC50 Panc-1
Protocol: as §1

PI3K-δ = PI3K-δ (Homo sapiens, UniProt O00329); assay: PI3K-δ assay (ADP-Glo); format: biochemical; details: for pIC50: read-out: PI3K inhibition IC50 -δ; for Fold-selectivity for PI3K-α with respect to -δ: α versus δ isoform
Chain of PI3K-δ (O00329 whole entry, species assumed, canonical isoform): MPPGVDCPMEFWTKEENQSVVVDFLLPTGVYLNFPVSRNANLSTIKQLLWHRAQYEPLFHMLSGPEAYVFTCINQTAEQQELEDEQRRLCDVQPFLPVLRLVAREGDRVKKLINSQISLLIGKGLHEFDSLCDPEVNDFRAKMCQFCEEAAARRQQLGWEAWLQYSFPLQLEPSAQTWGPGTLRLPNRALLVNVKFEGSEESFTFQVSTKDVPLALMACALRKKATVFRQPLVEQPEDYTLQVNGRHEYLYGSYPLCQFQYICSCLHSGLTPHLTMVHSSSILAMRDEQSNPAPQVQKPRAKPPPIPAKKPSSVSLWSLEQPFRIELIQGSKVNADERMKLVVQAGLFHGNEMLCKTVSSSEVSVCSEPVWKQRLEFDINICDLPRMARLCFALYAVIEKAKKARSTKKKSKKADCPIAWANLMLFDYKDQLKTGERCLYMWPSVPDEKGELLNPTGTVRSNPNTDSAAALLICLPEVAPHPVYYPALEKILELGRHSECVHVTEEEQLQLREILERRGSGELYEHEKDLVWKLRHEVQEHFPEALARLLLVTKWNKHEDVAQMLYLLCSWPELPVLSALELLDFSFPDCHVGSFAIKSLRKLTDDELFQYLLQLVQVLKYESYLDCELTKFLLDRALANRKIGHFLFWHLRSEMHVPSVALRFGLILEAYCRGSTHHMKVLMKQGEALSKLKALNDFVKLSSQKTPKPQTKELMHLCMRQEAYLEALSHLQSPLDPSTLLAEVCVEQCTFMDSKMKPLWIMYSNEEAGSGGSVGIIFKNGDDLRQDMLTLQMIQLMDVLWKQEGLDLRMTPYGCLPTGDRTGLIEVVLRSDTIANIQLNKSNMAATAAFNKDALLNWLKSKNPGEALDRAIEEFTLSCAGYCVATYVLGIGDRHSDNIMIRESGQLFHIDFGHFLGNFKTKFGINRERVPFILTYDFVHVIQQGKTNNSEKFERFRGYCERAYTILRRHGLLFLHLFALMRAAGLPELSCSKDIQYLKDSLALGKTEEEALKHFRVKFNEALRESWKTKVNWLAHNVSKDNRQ
Chain of PI3K-δ (P27986 whole entry partner, species assumed, canonical isoform): as the sequence (P27986 whole entry partner) above
Protocol: Compounds proposed in present invention were evaluated for their inhibitory activity on phosphoinositide-3-kinase-alpha and other isoforms (beta, gamma and delta). […] The protocols used for these bioassays are as follows:
The enzyme is assayed for 120 min after which 20 ul of ADP-Glo reagent is added. After a further incubation of 40 min, 40 ul of Kinase Detection Buffer is added. The assays are incubated for 40 min and then read on PerkinElmer Envision for 1 sec/well.

[3] = test system: MCF-7 (breast cancer) cells; assay: MTT cytotoxicity assay, MCF-7; format: cell-based; details: Homo sapiens, MCF7, 48 h treatment, read-out: Anticancer activity IC50 MCF-7
Protocol: as §1

PI3K-γ = PI3K-γ (Homo sapiens, UniProt P48736); assay: PI3K-γ assay (ADP-Glo); format: biochemical; details: for pIC50: read-out: PI3K inhibition IC50 -γ; for Fold-selectivity for PI3K-α with respect to -γ: α versus γ isoform
Chain of PI3K-γ (P48736 whole entry, species assumed, canonical isoform): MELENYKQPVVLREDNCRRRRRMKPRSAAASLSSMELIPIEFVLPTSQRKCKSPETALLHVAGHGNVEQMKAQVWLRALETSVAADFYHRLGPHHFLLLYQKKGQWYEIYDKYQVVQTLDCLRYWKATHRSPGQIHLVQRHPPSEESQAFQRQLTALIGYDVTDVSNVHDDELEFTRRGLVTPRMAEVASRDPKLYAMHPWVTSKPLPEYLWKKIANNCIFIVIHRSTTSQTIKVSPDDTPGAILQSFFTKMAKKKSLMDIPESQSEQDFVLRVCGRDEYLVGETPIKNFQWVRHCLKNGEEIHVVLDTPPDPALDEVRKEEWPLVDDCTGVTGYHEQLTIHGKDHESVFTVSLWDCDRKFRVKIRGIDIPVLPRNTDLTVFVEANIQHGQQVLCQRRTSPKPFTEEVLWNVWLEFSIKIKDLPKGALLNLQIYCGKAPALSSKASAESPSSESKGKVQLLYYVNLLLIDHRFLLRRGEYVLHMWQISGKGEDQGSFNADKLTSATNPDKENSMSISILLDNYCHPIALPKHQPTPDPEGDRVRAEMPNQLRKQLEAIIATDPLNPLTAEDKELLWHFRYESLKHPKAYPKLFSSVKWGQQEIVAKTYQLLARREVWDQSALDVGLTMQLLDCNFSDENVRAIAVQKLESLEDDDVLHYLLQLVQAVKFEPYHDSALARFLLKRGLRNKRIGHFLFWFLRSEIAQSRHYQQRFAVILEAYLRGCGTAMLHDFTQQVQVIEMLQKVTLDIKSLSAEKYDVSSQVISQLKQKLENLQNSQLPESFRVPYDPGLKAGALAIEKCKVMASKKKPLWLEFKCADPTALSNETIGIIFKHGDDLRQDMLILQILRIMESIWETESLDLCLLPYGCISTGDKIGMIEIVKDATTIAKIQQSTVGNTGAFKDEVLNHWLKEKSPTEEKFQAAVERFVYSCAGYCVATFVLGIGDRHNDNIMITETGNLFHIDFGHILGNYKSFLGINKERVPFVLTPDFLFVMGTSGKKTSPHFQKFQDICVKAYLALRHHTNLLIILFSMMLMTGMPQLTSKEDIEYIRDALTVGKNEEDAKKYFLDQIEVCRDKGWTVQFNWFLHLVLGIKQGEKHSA
Protocol: The enzyme is assayed for 75 min after which 20 ul of ADP-Glo reagent is added. After a further incubation of 40 min, 40 ul of Kinase Detection Buffer is added. The assays are incubated for 40 min and then read on PerkinElmer Envision for 1 sec/well.

PI3K-β = PI3K-β (Homo sapiens, UniProt P42338); assay: PI3K-β assay (ADP-Glo); format: biochemical; details: for pIC50: read-out: PI3K inhibition IC50 -β; for Fold-selectivity for PI3K-α with respect to -β: α versus β isoform
Chain of PI3K-β (P42338 whole entry, species assumed, canonical isoform): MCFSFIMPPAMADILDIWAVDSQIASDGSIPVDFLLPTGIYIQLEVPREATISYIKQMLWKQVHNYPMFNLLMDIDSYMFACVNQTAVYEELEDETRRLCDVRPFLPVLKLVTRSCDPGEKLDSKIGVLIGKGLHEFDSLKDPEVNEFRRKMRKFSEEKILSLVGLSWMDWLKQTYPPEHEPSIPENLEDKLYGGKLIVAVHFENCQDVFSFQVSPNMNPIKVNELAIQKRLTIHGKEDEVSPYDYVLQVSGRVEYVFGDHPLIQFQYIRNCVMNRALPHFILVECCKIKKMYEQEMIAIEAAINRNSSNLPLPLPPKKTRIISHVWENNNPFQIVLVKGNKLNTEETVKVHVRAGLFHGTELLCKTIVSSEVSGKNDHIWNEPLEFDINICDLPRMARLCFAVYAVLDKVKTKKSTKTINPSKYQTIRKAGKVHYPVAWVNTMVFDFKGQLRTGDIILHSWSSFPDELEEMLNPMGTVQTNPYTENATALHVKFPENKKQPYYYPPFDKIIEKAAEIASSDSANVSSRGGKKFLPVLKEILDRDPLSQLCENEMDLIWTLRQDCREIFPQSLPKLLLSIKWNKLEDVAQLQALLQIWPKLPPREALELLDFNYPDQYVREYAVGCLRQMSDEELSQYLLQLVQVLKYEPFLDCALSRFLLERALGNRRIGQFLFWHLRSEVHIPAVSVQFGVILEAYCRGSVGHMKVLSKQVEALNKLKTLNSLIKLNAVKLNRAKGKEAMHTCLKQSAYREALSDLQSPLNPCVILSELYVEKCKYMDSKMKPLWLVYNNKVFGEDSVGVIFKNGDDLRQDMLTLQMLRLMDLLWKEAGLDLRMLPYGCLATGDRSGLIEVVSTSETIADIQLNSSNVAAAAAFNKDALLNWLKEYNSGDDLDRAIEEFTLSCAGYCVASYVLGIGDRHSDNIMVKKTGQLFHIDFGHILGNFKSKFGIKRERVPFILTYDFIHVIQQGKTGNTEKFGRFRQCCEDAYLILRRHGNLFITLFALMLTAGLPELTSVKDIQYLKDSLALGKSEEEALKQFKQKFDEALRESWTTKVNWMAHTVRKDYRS
Chain of PI3K-β (P27986 whole entry partner, species assumed, canonical isoform): as the sequence (P27986 whole entry partner) above
Protocol: The enzyme is assayed for 60 min after which 20 ul of ADP-Glo reagent is added. After a further incubation of 40 min, 40 ul of kinase detection Buffer is added. The assays are incubated for 40 min and then read on PerkinElmer Envision for 1 sec/well.

A-375 (melanoma) cells = assay: MTT cytotoxicity assay, A375; format: cell-based; details: Homo sapiens, 48 h treatment, read-out: Anticancer activity IC50 A375
Protocol: as §1

Row | % Inhibition of PI3K-α at 0.5 μM (PI3K-α) [%] | inhibition at 0.5 µM (PI3K-α) [%] | pIC50 (PI3K-α) | pIC50 (PI3K-δ) | Fold-selectivity for PI3K-α with respect to -δ (PI3K-δ) [fold] | pIC50 (PI3K-γ) | Fold-selectivity for PI3K-α with respect to -γ (PI3K-γ) [fold] | pIC50 (PI3K-β) | Fold-selectivity for PI3K-α with respect to -β (PI3K-β) [fold] | % inhibition of PI3K-β (PI3K-β; up to 20 μM) [%] | Compound | pIC50 [1] | pIC50 (HL-60 (leukemia) cells) | pIC50 [2] | pIC50 [3] | pIC50 (A-375 (melanoma) cells)
1 | 48.6 | > 40 | 6.49 | < 5.00 | >31.1 | 6.72 | 0.6 | < 5.00 | >31.1 |  | N#CCc1ccc(Nc2ncnc3ccc(-c4ccc5c(c4)OCO5)cc23)cc1 [Compound 21, 6-(benzo[d][1,3]dioxol-5-yl)-4-(4-cyanomethyl)phenylamino-quinazoline] | 5.15 | 4.57 | 4.48 | 4.47 | 4.62
2 | 47.5 | > 40 | 6.70 | < 5.00 | >49.7 | 6.12 | 3.7 | < 5.00 | >49.7 |  | N#CCc1ccc(Nc2ncnc3ccc(-c4ccc5[nH]ccc5c4)cc23)cc1 [Compound 26, 6-(1H-indol-5-yl)-4-(4-cyanomethyl)phenylamino-quinazoline] | 4.62 | 4.74 | 4.80 | 5.15 | 4.51
3 | 45.6 | > 40 | 6.15 | < 5.00 | >14.2 | 6.44 | 0.5 | < 5.00 | >14.2 |  | N#CCc1ccc(Nc2ncnc3ccc(-c4ccncc4)cc23)cc1 [Compound 28, 6-(pyridin-4-yl)-4-(4-cyanomethyl)phenylamino-quinazoline] | 4.12 | 4.49 | 4.41 | 4.49 | 4.46
4 | 48.8 | > 40 | 6.82 | 6.06 | 5.9 | 5.07 | 56 | < 4.70 | >133 | 0 | N#CCc1ccc(Nc2ncnc3ccc(-c4cncc5ccccc45)cc23)cc1 [Compound 29, 6-(isoquinolin-4-yl)-4-(4-cyanomethyl)phenylamino-quinazoline] | 5.05 | 5.00 | 5.05 | 4.92 | 4.92
